According to ChEMBL document CHEMBL1201862, “PubChem BioAssay data set” (2004):
Each block holds one compound with its values, some of them ahead of it. The source made the active and inactive calls.

How the values were obtained:
[1] = NIH-3T3 fibroblast cytotoxicity, dose response, cytotoxicity control, cell-based, fluorescence, Alamar Blue, secondary assay (AID 2327); format: functional;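 further: NIH-3T3 mouse fibroblasts cultured with fluconazole at 8 µg/mL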
[2] = target: T1, Leucine aminopeptidase (Plasmodium falciparum 3D7, UniProt Q8IL11); test: P. falciparum M17LAP inhibitors, primary screen, biochemical, fluorogenic H-Leu-NHMec substrate, 1536-well (AID 1619); format: functional
T1 sequence (Q8IL11 whole entry): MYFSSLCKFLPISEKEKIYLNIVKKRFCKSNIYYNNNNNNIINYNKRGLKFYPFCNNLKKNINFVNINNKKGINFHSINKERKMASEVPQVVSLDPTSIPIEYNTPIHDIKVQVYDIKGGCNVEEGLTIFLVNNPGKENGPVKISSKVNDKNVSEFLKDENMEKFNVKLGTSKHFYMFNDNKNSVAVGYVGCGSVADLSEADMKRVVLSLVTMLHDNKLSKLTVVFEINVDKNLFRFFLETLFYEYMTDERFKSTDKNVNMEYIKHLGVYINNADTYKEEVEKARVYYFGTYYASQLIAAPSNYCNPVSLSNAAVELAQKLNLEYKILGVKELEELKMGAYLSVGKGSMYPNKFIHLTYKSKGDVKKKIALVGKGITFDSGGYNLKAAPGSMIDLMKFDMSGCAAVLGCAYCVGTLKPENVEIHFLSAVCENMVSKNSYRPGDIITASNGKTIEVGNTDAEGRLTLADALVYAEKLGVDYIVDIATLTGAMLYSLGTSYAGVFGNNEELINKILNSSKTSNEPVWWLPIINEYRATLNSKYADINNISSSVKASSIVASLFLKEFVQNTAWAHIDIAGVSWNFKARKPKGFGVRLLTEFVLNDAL

[3] = system: Streptococcus sp. 'group A'; test: Streptococcus pyogenes SK(-)GAS viability under kanamycin – luminescence, BacTiterGlo, confirmation, counter-screen for streptokinase expression inhibitor project, dose response (AID 1900); format: functional, organism-based
[4] = fluconazole-exposed Candida albicans growth modulators – fluorescence, retest, confirmation (AID 2467); format: functional, cell-based
[5] = target: T2, Serine/threonine-protein phosphatase (Candida dubliniensis (strain CD36 / CBS 7987 / NCPF 3949 / NRRLY-17841) (Yeast), UniProt B9W6M3); test: blockers of CaCl2-induced CDRE-lacZ signaling – S. cerevisiae, luminescence, secondary, dose response (AID 2388); format: functional, cell-based;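 further: yeast reporter cells carrying a calcineurin-responsive lacZ construct stimulated with calcium chloride; luminescent beta-galactosidase reporter signal in whole cells rather than isolated phosphatase activity; potency for inhibition where a drop in reporter signal means calcineurin blockade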
T2 sequence (B9W6M3 whole entry): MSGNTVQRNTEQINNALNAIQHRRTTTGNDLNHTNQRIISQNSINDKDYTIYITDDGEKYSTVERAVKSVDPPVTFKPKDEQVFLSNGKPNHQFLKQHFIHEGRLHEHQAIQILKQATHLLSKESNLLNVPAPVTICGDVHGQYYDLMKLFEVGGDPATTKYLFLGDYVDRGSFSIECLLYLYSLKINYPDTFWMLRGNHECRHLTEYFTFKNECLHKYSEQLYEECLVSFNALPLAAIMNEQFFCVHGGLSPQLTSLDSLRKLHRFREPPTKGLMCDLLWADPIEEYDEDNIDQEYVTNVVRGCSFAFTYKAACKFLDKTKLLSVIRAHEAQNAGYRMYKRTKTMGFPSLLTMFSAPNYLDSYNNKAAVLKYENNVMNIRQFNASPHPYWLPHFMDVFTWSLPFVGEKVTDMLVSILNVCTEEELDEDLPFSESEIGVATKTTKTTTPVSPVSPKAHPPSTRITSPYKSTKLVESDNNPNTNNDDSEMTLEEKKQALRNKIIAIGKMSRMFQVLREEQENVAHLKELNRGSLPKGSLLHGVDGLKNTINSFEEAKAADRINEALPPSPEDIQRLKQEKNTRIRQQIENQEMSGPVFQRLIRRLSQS

[6] = system: Streptococcus; test: GAS UMAA2166 growth inhibition – luminescence, BacTiterGlo, counter-screen for streptokinase expression inhibitor project, dose response (AID 1915); format: functional, organism-based;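 further: potency for reduction of bacterial viability or growth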
[7] = target: ATP-dependent molecular chaperone HSP82 (Candida albicans (strain WO-1) (Yeast), UniProt C4YTQ8); test: steroid-induced GRE reporter decrease in yeast – S. cerevisiae, luminescence, Hsp90 inhibitor project, dose response (AID 2400); format: functional, cell-based;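 further: beta-galactosidase luminescence from glucocorticoid response element reporter as proxy for Hsp90 function; inhibitor potency where signal loss means Hsp90 inhibition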
[8] = target: T3, Cytochrome P450 1A2 (Homo sapiens, UniProt P05177);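 further: PubChem cytochrome P450 panel assay, CYP1A2 panel member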
T3 sequence (P05177 whole entry): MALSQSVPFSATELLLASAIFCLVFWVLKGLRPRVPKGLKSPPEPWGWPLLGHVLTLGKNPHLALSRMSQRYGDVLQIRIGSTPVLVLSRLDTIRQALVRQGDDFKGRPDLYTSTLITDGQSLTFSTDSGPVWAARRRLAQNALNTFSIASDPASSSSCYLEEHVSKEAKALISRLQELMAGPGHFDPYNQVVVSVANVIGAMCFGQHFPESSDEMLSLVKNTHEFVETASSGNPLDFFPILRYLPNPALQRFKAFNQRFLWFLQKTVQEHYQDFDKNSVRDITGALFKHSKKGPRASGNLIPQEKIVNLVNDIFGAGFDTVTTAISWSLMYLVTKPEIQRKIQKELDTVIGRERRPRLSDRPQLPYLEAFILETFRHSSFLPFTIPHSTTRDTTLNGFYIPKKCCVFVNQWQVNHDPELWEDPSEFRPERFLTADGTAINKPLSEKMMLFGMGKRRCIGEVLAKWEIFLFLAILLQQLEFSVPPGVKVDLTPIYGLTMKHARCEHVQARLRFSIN

[9] = target: T4, Corticotropin-releasing factor receptor 2/Corticotropin-releasing factor-binding protein (Homo sapiens, UniProt P24387+Q13324); test: Dose Response confirmation of uHTS hits for small molecule antagonists of the CRF-binding protein and CRF-R2 receptor complex.; format: functional; conditions: read-out: IC50_Mean
T4 sequence (Q13324 whole entry): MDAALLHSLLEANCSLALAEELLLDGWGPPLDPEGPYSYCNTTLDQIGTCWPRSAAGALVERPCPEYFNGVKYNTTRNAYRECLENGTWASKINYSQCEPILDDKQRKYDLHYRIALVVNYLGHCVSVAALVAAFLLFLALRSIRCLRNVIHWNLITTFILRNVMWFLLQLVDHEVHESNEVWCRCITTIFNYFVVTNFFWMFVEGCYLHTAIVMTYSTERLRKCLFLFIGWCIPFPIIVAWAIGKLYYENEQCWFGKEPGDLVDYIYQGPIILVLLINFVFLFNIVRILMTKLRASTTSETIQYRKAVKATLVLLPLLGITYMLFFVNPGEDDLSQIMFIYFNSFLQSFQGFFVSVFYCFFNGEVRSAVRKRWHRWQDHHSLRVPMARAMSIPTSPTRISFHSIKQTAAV
T4 sequence (P24387 whole entry): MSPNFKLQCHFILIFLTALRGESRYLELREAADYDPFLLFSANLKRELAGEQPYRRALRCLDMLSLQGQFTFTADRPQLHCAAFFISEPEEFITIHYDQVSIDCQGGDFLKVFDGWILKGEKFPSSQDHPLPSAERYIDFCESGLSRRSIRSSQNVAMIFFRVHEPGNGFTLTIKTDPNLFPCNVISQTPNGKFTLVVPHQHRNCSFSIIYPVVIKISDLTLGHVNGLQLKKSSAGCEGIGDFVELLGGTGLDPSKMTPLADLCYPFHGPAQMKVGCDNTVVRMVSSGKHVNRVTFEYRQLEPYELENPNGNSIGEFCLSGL

[10] = target: T4, Corticotropin-releasing factor receptor 2/Corticotropin-releasing factor-binding protein; test: activators of CRF receptor 2 with binding protein – uHTS hits, confirmation (AID 602473); format: functional; conditions: read-out: EC50_Mean
[11] = blockers of CRF-binding protein–CRF-R2 complex – cell-based, uHTS hits, 384-well, dose response (AID 651639); format: functional, Homo sapiens; conditions: read-out: IC50_Mean
[12] = cells; format: functional, cell-based
[13] = cells; format: functional, cell-based; remark: listed apart in the source
[14] = Trypanosoma cruzi growth suppression in host cells – NIH3T3 host cells, beta-gal luminescence, confirmation (AID 2044); format: functional, cell-based;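 further: intracellular parasites grown in NIH/3T3 mouse fibroblasts as host cells; luminescent beta-galactosidase reporter signal from transgenic T. cruzi replicating inside host cells; inhibitors lower the luminescence signal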
[15] = NIH3T3 cell viability loss – ATP luminescence, mouse fibroblasts, counter-screen, dose response (AID 2010); format: functional, cell-based;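 further: cells exposed to compound for about 90 hours before reading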
[16] = cells
[17] = target: Cytochrome P450 2D6 (Homo sapiens, UniProt P10635);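 further: CYP2D6 member of a cytochrome P450 panel assay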
[18] = system: BJ; test: BJ-TERT fibroblast viability loss – cell-based, RAS-independent, luminescence, dose response (AID 1933); format: functional; conditions: Homo sapiens
[19] = system: BJ; test: cells; format: functional, cell-based; conditions: Homo sapiens
[20] = system: BJ; test: BJ-TERT-LT-ST fibroblast viability loss – cell-based, RAS-independent, luminescence, dose response (AID 1935); format: functional; conditions: Homo sapiens;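 further: BJ fibroblasts immortalized with TERT plus LT and ST oncogenes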
[21] = DRD fibroblast viability loss – cell-based, non-viral oncogenic, luminescence, dose response (AID 1934); format: functional; conditions: Homo sapiens
[22] = blockers of HIV-1 envelope-mediated cell-cell fusion – cherry-pick, dose response (AID 652057); format: functional, cell-based
[23] = blockers of HIV-1 ZM109 envelope-driven cell-cell fusion – HeLa effector, CEM target cells, luciferase, cherry-pick, dose response (AID 652058); format: functional, cell-based;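 further: luciferase signal from HIV-1 Env mediated cell-cell fusion of effector and target cells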
[24] = off-target signal loss in HeLa-CEM21 co-culture – HeLa F-luc CTL cells, cherry-picked, counter-screen for HIV-1 Env fusion inhibitor project, dose response (AID 652040); format: functional, cell-based;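 further: potency for signal decrease marking cytotoxic or nonspecific inhibition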
[25] = HIV-1 AD8 envelope cell-cell fusion blockers – cherry-pick, dose response (AID 652062); format: functional, cell-based;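 further: luciferase signal from cell-cell fusion driven by HIV-1 clade B AD8 Env; potency is for inhibitors of fusion seen as a drop in luminescence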

Chain of ATP-dependent molecular chaperone HSP82 (C4YTQ8 whole entry): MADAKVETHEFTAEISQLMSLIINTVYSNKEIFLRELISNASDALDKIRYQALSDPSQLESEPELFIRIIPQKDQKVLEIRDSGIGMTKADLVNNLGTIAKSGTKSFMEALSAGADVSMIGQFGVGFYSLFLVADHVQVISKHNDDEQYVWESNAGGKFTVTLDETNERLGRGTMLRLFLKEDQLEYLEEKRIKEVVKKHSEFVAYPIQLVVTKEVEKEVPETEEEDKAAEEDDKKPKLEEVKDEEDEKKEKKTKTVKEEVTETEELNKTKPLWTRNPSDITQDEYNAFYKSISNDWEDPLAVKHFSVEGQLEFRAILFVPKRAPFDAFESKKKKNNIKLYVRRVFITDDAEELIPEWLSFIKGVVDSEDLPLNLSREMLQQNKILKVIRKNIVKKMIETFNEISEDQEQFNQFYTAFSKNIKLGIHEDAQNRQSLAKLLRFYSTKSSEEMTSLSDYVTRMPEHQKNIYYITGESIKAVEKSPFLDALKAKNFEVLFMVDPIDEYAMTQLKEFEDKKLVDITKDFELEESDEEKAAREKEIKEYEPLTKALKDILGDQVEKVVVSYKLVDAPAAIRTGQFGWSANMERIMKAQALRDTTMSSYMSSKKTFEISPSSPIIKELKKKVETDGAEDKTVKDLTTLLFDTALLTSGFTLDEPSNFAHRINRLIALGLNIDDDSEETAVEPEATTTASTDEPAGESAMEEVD
Chain of Cytochrome P450 2D6 (P10635 whole entry): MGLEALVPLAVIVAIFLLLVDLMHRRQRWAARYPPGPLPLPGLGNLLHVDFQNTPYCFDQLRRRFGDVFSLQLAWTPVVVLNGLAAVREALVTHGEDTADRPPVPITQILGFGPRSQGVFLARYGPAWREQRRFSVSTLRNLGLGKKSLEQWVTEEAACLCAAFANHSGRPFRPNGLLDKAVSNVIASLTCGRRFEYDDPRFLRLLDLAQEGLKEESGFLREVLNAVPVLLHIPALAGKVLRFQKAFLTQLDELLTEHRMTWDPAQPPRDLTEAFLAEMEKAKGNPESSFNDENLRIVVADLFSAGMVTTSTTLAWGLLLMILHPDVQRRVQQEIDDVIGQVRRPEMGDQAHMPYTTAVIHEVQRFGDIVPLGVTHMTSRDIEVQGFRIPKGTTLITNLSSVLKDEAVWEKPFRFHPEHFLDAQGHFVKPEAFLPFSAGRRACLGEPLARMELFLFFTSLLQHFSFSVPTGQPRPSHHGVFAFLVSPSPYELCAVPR

Compound: O=C(CCc1ccccc1)NNC(=S)NC(=O)c1ccccc1
EC50 [1]: > 150 µM (inactive)
IC50 [2]: 41.3 µM (active)
EC50 [3]: 1.27 µM (active)
EC50 [4]: 1.01 µM (active)
EC50 [5]: 19.2 µM (active)
EC50 [6]: 5.07 µM (active)
EC50 [7]: 16.4 µM (active)
AC50 [8]: 14.1 µM (inconclusive)

IC50 [9]: 15.2 µM (active)
EC50 [10]: > 53 µM (inactive)
IC50 [11]: > 20 µM (inactive)
Compound: CCOC(=O)Nc1ccc(Oc2ccccc2)cc1

Compound: Cc1cc(O)nc(SCC(=O)NCCc2ccccc2)n1
IC50 [12]: > 29.9 µM (inactive)
EC50 [13]: > 29.9 µM (inactive)

IC50 [9]: < 0.368 µM (active)
EC50 [10]: > 53 µM (inactive)
IC50 [11]: > 20 µM (inactive)
Compound: O=C(Nc1cc(S(=O)(=O)N2CCCCC2)ccc1N1CCCCC1)C1CC1

Compound: CC(C)(CO)CNC1CCCN(C2Cc3ccccc3C2)C1 (stereo unspecified)
EC50 [14]: < 0.1 µM (active)
EC50 [15]: 10.5 µM (active)
EC50 [16]: 0.12 µM (active)

IC50 [9]: 16.3 µM (active)
EC50 [10]: > 53 µM (inactive)
IC50 [11]: 14.5 µM (active)
AC50 [17]: 31.6 µM (inconclusive)
Compound: COC(=O)C(NC(=O)c1ccc(F)cc1)(Nc1ncc(S(=O)(=O)c2ccc([N+](=O)[O-])cc2)s1)C(F)(F)F (stereo unspecified)

Compound: COc1ccc(C(=O)/C(C#N)=N/Nc2ccccc2[N+](=O)[O-])cc1
EC50 [18]: 10.7 µM (active)
EC50 [19]: 19.4 µM (inconclusive)
EC50 [20]: 21.5 µM (inconclusive)
EC50 [21]: 2.84 µM (active)
IC50 [9]: 4.66 µM (active)
EC50 [10]: > 53 µM (inactive)
IC50 [11]: 11 µM (active)

Compound: O=C(NC1CCCCC1)C(c1ccc(Cl)cc1)N(C(=O)c1cnccn1)c1ccc2c(c1)OCO2 (stereo unspecified)
EC50 [1]: > 150 µM (inactive)
EC50 [4]: > 38 µM (not active)
AC50 [22]: 3.15 µM (active)
AC50 [23]: 2.47 µM (active)
AC50 [24]: 7.12 µM (active)
AC50 [25]: 1.95 µM (active)
